Source: ChEMBL document CHEMBL3853265 (Medchemcomm, 2016)
Values after ≈ are worked out from the molar mass of the structure shown.

Assays:
[1] = Renal clearance in dog at 1 mg/kg, iv and 3 mg/kg, po relative to GFR x fraction unbound; format: ADME, organism-based, Canis lupus familiaris; conditions: in vivo
[2] = Intrinsic clearance in human liver microsomes; format: ADME; conditions: read-out: CLH
[3] = Dissociation constant, pKa of the compound; format: physicochemical
[4] = Toxicity in dog assessed as increase in body temperature at 30 mg/kg, po administered as single dose; format: organism-based, Canis lupus familiaris; conditions: in vivo
[5] = Drug metabolism in rat hepatocytes assessed as monooxidation; format: ADME, cell-based, Hepatocyte
[6] = target: T1, Solute carrier family 22 member 6 (Homo sapiens, UniProt Q4U2R8); test: Inhibition of OAT1 (unknown origin)
T1 sequence (Q4U2R8 whole entry): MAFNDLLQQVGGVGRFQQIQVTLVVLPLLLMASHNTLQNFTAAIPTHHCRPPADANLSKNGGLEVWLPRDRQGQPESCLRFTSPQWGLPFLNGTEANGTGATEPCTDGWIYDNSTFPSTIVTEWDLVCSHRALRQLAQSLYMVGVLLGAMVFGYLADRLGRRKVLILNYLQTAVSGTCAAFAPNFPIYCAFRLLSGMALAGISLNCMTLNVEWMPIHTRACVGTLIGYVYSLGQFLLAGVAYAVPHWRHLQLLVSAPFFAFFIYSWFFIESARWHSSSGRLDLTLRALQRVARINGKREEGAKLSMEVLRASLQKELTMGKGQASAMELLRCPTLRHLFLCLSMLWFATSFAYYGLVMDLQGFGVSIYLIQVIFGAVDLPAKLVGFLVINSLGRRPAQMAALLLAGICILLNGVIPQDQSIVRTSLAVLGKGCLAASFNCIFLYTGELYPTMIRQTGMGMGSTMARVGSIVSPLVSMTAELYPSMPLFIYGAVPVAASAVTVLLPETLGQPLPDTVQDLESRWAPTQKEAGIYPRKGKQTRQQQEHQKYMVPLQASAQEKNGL

[7] = Intrinsic clearance in dog liver microsomes; format: ADME, Canis lupus familiaris; conditions: read-out: CLH
[8] = Volume of distribution at steady state in rat at 1 mg/kg, iv and 3 mg/kg, po; format: ADME, organism-based; conditions: in vivo, read-out: Vdss
Rattus norvegicus [9] = test: Toxicity in po dosed Wistar Han rat assessed as drug tolerance administered for 14 days; format: organism-based; conditions: in vivo, 336 h
[10] = Unbound clearance in rat at 1 mg/kg, iv and 3 mg/kg, po; format: ADME, organism-based; conditions: in vivo
[11] = target: Voltage-gated inwardly rectifying potassium channel KCNH2 (Homo sapiens, UniProt Q12809); test: Inhibition of human ERG by patch clamp method
Voltage-gated inwardly rectifying potassium channel KCNH2, sequence (Q12809 whole entry): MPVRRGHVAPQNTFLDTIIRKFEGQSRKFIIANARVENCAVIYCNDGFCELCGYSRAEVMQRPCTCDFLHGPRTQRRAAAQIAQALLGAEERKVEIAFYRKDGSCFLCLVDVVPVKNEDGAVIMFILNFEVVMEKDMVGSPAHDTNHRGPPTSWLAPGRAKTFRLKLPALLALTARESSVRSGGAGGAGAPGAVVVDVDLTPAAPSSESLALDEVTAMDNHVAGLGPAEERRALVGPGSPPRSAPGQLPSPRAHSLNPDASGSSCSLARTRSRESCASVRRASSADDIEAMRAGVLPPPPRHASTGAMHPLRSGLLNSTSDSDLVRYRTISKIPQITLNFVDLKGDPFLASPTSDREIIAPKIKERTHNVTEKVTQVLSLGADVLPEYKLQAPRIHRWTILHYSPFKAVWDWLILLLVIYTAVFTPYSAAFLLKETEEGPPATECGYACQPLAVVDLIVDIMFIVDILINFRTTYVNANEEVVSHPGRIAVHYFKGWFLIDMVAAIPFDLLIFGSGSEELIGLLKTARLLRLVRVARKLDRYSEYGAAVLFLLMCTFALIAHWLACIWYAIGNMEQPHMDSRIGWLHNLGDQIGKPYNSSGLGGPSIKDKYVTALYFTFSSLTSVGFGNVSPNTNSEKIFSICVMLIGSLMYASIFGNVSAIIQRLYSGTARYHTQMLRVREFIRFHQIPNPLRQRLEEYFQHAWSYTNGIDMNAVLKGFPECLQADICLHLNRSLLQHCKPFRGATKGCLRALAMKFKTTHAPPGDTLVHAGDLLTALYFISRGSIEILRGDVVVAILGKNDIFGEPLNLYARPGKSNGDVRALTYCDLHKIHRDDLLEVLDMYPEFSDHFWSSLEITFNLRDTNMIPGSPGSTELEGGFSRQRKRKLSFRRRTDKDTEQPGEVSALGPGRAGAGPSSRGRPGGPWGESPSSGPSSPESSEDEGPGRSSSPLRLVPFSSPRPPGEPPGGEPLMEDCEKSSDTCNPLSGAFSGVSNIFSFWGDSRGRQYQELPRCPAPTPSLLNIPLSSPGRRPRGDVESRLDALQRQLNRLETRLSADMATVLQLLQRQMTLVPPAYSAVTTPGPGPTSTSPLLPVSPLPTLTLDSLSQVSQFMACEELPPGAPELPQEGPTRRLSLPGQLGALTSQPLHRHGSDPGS

[12] = Toxicity in dog assessed as increase in body temperature at 100 mg/kg, po administered as single dose; format: organism-based, Canis lupus familiaris; conditions: in vivo
[13] = Renal clearance in rat at 1 mg/kg, iv and 3 mg/kg, po relative to GFR x fraction unbound; format: ADME, organism-based; conditions: in vivo
[14] = Solubility of the compound at pH 6.5; format: physicochemical; conditions: buffer
[15] = Toxicity in dog assessed as increase in body temperature at 10 mg/kg, po administered as single dose; format: organism-based, Canis lupus familiaris; conditions: in vivo
[16] = Toxicity in dog assessed as uncontrollable panting at 30 mg/kg, po administered as single dose; format: organism-based, Canis lupus familiaris; conditions: in vivo
[17] = Plasma clearance in rat at 1 mg/kg, iv and 3 mg/kg, po; format: ADME, organism-based
[18] = Octanol-water partition co-efficient, log D of the compound by shake flask method; format: physicochemical
[19] = Oral bioavailability in rat at 3 mg/kg; format: ADME, organism-based; conditions: in vivo
[20] = Fraction unbound in dog plasma; format: ADME, cell-free, Canis lupus familiaris
[21] = Fraction unbound in human plasma; format: ADME, cell-free
[22] = Toxicity in dog assessed as increase in heart rate at 30 mg/kg, po administered as single dose; format: organism-based, Canis lupus familiaris; conditions: in vivo
[23] = target: T2, Solute carrier organic anion transporter family member 1B1 (Homo sapiens, UniProt Q9Y6L6); test: Drug uptake assessed as human OATP1B1-mediated drug accumulation by cell-based assay relative to wild type protein; format: ADME
T2 sequence (Q9Y6L6 whole entry): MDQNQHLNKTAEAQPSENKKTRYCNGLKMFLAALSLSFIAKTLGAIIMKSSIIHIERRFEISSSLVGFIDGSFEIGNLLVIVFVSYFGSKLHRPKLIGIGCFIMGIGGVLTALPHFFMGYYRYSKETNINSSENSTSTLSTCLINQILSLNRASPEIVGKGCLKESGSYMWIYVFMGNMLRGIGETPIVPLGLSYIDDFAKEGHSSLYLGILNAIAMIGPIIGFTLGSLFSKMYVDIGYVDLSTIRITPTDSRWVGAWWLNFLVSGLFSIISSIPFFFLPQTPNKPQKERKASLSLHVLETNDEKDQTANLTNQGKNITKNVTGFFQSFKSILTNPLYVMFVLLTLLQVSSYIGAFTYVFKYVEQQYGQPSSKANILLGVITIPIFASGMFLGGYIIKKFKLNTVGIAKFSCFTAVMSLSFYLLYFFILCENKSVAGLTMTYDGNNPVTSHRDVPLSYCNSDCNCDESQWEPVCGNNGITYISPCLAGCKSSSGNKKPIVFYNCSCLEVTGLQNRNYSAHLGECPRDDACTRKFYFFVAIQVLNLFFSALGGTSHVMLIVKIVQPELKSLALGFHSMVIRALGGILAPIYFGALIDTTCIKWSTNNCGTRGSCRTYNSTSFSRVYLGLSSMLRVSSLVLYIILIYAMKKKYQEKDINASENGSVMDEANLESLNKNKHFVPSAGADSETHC

[24] = Mutagenicity in […] by Ames test in presence of […]; format: toxicity
[25] = Fraction unbound in rat plasma; format: ADME, cell-free
[26] = target: T3, Solute carrier family 22 member 11 (Homo sapiens, UniProt Q9NSA0); test: Inhibition of OAT4 (unknown origin)
T3 sequence (Q9NSA0 whole entry): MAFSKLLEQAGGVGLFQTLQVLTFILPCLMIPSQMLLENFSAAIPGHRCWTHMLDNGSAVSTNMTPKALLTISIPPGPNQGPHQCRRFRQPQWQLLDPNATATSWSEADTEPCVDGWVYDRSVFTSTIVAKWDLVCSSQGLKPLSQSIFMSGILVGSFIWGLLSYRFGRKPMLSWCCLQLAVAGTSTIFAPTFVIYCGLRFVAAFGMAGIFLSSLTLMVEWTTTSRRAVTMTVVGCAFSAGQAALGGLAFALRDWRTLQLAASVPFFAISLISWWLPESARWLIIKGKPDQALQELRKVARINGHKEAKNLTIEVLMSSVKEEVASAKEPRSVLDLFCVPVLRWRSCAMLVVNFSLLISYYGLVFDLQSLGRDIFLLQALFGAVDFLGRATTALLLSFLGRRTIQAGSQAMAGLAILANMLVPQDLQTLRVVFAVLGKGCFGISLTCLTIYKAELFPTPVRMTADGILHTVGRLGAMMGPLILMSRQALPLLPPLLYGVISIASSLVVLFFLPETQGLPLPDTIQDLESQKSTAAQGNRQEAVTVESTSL

[27] = Mutagenicity in […] by Ames test in absence of […]; format: toxicity
Rattus norvegicus [28] = test: Toxicity in Wistar Han rat at <= 100 mg/kg/day, po administered for 14 days by macroscopic analysis; format: organism-based; conditions: in vivo, 336 h

SMILES	CL [1] [%]	microsomal CLint [2] [µL/min/mg]	pKa [3]	IC50 [6] [µM]	microsomal CLint [7] [µL/min/mg]	Vd [8] [L/kg]	Activity (Rattus norvegicus [9])	CL free [10] [mL/min/kg]	IC50 [11] [µM]	CL [13] [%]	solubility [14] [µM]	clearance [17] [mL/min/kg]	logD [18]	bioavailability [19] [%]	fraction unbound [20]	fraction unbound [21]	fold change (FC) [23]	Activity [24]	fraction unbound [25]	IC50 [26] [µM]	also measured
O=S(=O)(Nc1ccc(C(F)(F)F)nc1)c1ccccc1C(F)(F)F	< 2	< 8	5.1	12.3	< 18	0.4	<= 100 mg kg-1	41	> 100	< 2	620 (≈ 230 µg/mL)	0.18	1.4	98	0.01	0.0084	0.902	Non-Toxic	0.0045	9.4	deltaT [4]: > 1.1 °C; Drug metabolism [5]: Metabolite_Detected; Activity [12]: Toxic; deltaT [15]: < 0.4 °C; Activity [16]: Toxic; Activity [22]: Toxic; Activity [27]: Non-Toxic
O=S(=O)(Nc1cncc(C(F)(F)F)c1)c1ccccc1C(F)(F)F	< 2	11	5.2	9.3	< 18	0.14	<= 100 mg/kg/day	324	> 100	< 2	489 (≈ 181 µg/mL)	0.55	1.5	150	0.057	0.0034	0.573	Non-Toxic	0.0017	8.5	Activity (Rattus norvegicus [28]): Non-Toxic; Activity [27]: Non-Toxic
